Source: patent US12392782B2, “Characterization of protein binding to per- and polyfluoroalkyl substances” (North Carolina State University, priority 2021, dated 2025)

target: HSA (Homo sapiens, UniProt P02768); assay: Differential scanning fluorimetry (DSF) thermal shift assay of HSA binding; details: not given
Method: (§1) Assays were also performed in 384-well plates, in which the reactions were performed using half the final volume (10 μL) and the concentration of each reagent was halved compared to those used in the 96-well plates.
(§2) Data are reported as mean values±SEM following background subtraction.
(§3) [formula] Top is the maximal response, bottom is minimal response, P is protein concentration, Kd is dissociation constant, X is ligand concentration, and Y is change in Tm. […] Comparison between protein concentrations and comparisons of calculated binding affinities between different compounds was performed using one-way analysis of variance (ANOVA) and a Tukey's post hoc test was performed to evaluate pair-wise differences. Significance between differences in values was defined as p<0.05.
(§4) Possible solvent effects were investigated for PFOA that was solubilized in each of the three solvents.

HSA, sequence (P02768 25-609): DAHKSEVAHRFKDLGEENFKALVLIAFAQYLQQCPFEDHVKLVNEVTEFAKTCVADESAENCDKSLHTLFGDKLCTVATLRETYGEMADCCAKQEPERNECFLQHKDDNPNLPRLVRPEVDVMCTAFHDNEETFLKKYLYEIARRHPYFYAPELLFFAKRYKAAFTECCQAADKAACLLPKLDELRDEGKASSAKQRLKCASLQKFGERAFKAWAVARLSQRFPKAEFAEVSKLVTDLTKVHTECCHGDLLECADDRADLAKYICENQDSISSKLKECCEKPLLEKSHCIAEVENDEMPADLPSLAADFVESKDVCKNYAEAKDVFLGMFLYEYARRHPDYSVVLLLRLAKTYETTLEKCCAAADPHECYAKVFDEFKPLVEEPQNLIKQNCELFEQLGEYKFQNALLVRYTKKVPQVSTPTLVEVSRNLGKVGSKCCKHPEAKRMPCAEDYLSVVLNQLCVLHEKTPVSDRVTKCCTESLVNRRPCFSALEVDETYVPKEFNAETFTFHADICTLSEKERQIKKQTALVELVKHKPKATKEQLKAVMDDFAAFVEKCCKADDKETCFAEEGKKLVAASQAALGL

SMILES	EC50 [µM]	Kd [µM]
O=S(=O)(O)C(F)(F)C(F)(F)C(F)(F)C(F)(F)F [PFBS, Perfluorobutanesulfonic acid]	1720 ± 230	1650 ± 280
O=S(=O)(O)C(F)(F)C(F)(F)OC(F)(C(F)(F)F)C(F)(F)OC(F)C(F)(F)F (stereo not drawn) [Nafion bp2, 7H-perfluoro-4-methyl-3,6-dioxaoctanesulfonic acid]	1900 ± 240	1510 ± 150
O=C(O)C(F)(F)C(F)(F)C(F)(F)C(F)(F)F [PFPeA, perfluoropentanoic acid]	2140 ± 170	2100 ± 230
O=C(O)C(F)(F)C(F)(F)C(F)(F)C(F)(F)C(F)(F)F [PFHxA, Perfluorohexanoic acid]	1400 ± 110	1640 ± 190
O=C(O)CCC(F)(F)C(F)(F)C(F)(F)F [3:3 FTCA, 2H,2H,3H,3H-Perfluorohexanoic acid]	2060 ± 210	1710 ± 190
O=S(=O)(O)C(F)(F)C(F)(F)C(F)(F)C(F)(F)C(F)(F)C(F)(F)C(F)(F)C(F)(F)F [PFOS, perfluorooctanesulfonic acid]	1130 ± 130	
O=C(O)CCC(F)(F)C(F)(F)C(F)(F)C(F)(F)C(F)(F)C(F)(F)F [6:3 FTCA, 2,H,2H,3H,3H-Perfluorononanoic acid]	840 ± 86	810 ± 92
O=C(O)CCC(F)(F)C(F)(F)C(F)(F)C(F)(F)C(F)(F)F [5:3 FTCA, 2H,2H,3H,3H-Perfluorooctanoic acid]	1480 ± 100	620 ± 42
O=C(O)C(F)(F)C(F)(F)C(F)(F)C(F)(F)C(F)(F)C(F)(F)C(F)(F)C(F)(F)C(F)(F)F [PFDA, perfluorodecanoic acid]	1110 ± 70	1190 ± 240
O=C(O)CCC(F)(F)C(F)(F)C(F)(F)C(F)(F)C(F)(F)C(F)(F)C(F)(F)C(F)(F)F [8:3 FTCA, 2,H,2H,3H,3H-Perfluoroundecanoate]	1160 ± 170	970 ± 68
O=C(O)C(F)(F)C(F)(F)C(F)(F)F [PFBA, Perfluorobutanoic acid]	2610 ± 190	2570 ± 320
CCCCCCCCCCCCCCCC(=O)O [Hexadecanoic Acid, hexadecanoic acid, reference compound]	84 ± 21	30 ± 8
O=C(O)C(F)(F)C(F)(F)C(F)(F)C(F)(F)C(F)(F)C(F)(F)C(F)(F)C(F)(F)F [PFNA, perfluorononanoic acid]	600 ± 92	580 ± 87
O=C(O)C(F)(F)C(F)(F)C(F)(F)C(F)(F)C(F)(F)C(F)(F)C(F)(F)C(F)(F)C(F)(F)C(F)(F)F [PFunDA, Perfluoroundecanoic acid]	1490 ± 24	1360 ± 530

same assay, conditions: HFPO-DA in DMSO (1:1 HBS and DMSO, room temperature 4 hours before analysis)

SMILES	EC50 [µM]
O=C(O)C(F)(OC(F)(F)C(F)(F)C(F)(F)F)C(F)(F)F (stereo not drawn) [HFPO-DA, hexafluoropropylene oxide dimer acid]	2340 ± 230

same assay, conditions: PFAS; 0.125 mM HSA; ± SEM

SMILES	Δ Tm [°C]
O=C(O)C(F)(F)C(F)(F)C(F)(F)C(F)(F)C(F)(F)C(F)(F)C(F)(F)C(F)(F)C(F)(F)C(F)(F)C(F)(F)F [PFDoA, perfluorododecanoic acid]	7.74 ± 0.14
O=S(=O)(O)CCC(F)(F)C(F)(F)C(F)(F)C(F)(F)F [4:2 FTSA, 2H,2H,3H,3H-Perfluorohexansulfonic acid]	3.49 ± 0.084
FC(OC(F)(F)C(F)(F)C(F)(F)F)C(F)(F)F (stereo not drawn) [E1, 1,1,1,2,2,3,3-Heptafluoro-3-(1,2,2,2-tetrafluoroethoxy)propane]	7.32 ± 0.042
OCCC(F)(F)C(F)(F)C(F)(F)C(F)(F)F [4:2 FTOH, 1H,1H,2H,2H-Perfluorohexane-1-ol]	0 ± 0
O=S(=O)(O)CCC(F)(F)C(F)(F)C(F)(F)C(F)(F)C(F)(F)C(F)(F)F [6:2 FTSA, 2H,2H,3H,3H-Perfluorooctane-1-sulfonate]	3.60 ± 0.33
O=S(=O)(O)C(F)(F)C(F)(F)C(F)(F)C(F)(F)C(F)(F)C(F)(F)F [PFHxS, perfluorohexanesulfonic acid]	11.0 ± 0.17
O=C(O)C(F)(OC(F)(F)C(F)(F)C(F)(F)F)C(F)(F)F (stereo not drawn) [HFPO-DA, hexafluoropropylene oxide dimer acid]	13.7 ± 0.12
O=C(O)C(F)(F)OC(F)(F)C(F)(F)OC(F)(F)C(F)(F)OC(F)(F)F [PFO3DoDA, Perfluoro-3,6,9-trioxadecanoic acid]	20.6 ± 0.58
OCCC(F)(F)C(F)(F)C(F)(F)C(F)(F)C(F)(F)C(F)(F)F [6:2 FTOH, 1H,1H,2H,2H-Perfluorooctanol]	0 ± 0
O=C(O)C(F)(F)C(F)(F)C(F)(F)C(F)(F)C(F)(F)C(F)(F)F [PFHpA, perfluoroheptanoic acid]	15.3 ± 0.29

same assay, conditions: PFAS; 4-parameter fit of Δ Tm; mean ± SEM

SMILES	EC50 [µM]
O=C(O)C(F)(F)C(F)(F)C(F)(F)C(F)(F)C(F)(F)C(F)(F)C(F)(F)C(F)(F)C(F)(F)C(F)(F)C(F)(F)F [PFDoA, perfluorododecanoic acid]	2510 ± 140
O=S(=O)(O)CCC(F)(F)C(F)(F)C(F)(F)C(F)(F)F [4:2 FTSA, 2H,2H,3H,3H-Perfluorohexansulfonic acid]	1450 ± 140
O=C(O)C(F)(F)C(F)(F)C(F)(F)C(F)(F)C(F)(F)C(F)(F)C(F)(F)F [PFOA, perfluorooctanoic acid]	840 ± 43
FC(OC(F)(F)C(F)(F)C(F)(F)F)C(F)(F)F (stereo not drawn) [E1, 1,1,1,2,2,3,3-Heptafluoro-3-(1,2,2,2-tetrafluoroethoxy)propane]	2340 ± 230
O=S(=O)(O)CCC(F)(F)C(F)(F)C(F)(F)C(F)(F)C(F)(F)C(F)(F)F [6:2 FTSA, 2H,2H,3H,3H-Perfluorooctane-1-sulfonate]	470 ± 120
O=S(=O)(O)C(F)(F)C(F)(F)C(F)(F)C(F)(F)C(F)(F)C(F)(F)F [PFHxS, perfluorohexanesulfonic acid]	980 ± 28
O=C(O)C(F)(OC(F)(F)C(F)(F)C(F)(F)F)C(F)(F)F (stereo not drawn) [HFPO-DA, hexafluoropropylene oxide dimer acid]	1830 ± 250
O=C(O)C(F)(F)OC(F)(F)C(F)(F)OC(F)(F)C(F)(F)OC(F)(F)F [PFO3DoDA, Perfluoro-3,6,9-trioxadecanoic acid]	1670 ± 190
O=C(O)C(F)(F)C(F)(F)C(F)(F)C(F)(F)C(F)(F)C(F)(F)F [PFHpA, perfluoroheptanoic acid]	680 ± 60

same assay, conditions: PFAS; single site ligand binding model; mean ± SEM

SMILES	Kd [µM]
O=C(O)C(F)(F)C(F)(F)C(F)(F)C(F)(F)C(F)(F)C(F)(F)C(F)(F)C(F)(F)C(F)(F)C(F)(F)C(F)(F)F [PFDoA, perfluorododecanoic acid]	1890 ± 260
O=S(=O)(O)CCC(F)(F)C(F)(F)C(F)(F)C(F)(F)F [4:2 FTSA, 2H,2H,3H,3H-Perfluorohexansulfonic acid]	1070 ± 190
FC(OC(F)(F)C(F)(F)C(F)(F)F)C(F)(F)F (stereo not drawn) [E1, 1,1,1,2,2,3,3-Heptafluoro-3-(1,2,2,2-tetrafluoroethoxy)propane]	1640 ± 140
O=S(=O)(O)CCC(F)(F)C(F)(F)C(F)(F)C(F)(F)C(F)(F)C(F)(F)F [6:2 FTSA, 2H,2H,3H,3H-Perfluorooctane-1-sulfonate]	370 ± 140
O=S(=O)(O)C(F)(F)C(F)(F)C(F)(F)C(F)(F)C(F)(F)C(F)(F)F [PFHxS, perfluorohexanesulfonic acid]	710 ± 190
O=C(O)C(F)(OC(F)(F)C(F)(F)C(F)(F)F)C(F)(F)F (stereo not drawn) [HFPO-DA, hexafluoropropylene oxide dimer acid]	1600 ± 160
O=C(O)C(F)(F)OC(F)(F)C(F)(F)OC(F)(F)C(F)(F)OC(F)(F)F [PFO3DoDA, Perfluoro-3,6,9-trioxadecanoic acid]	1530 ± 140
O=C(O)C(F)(F)C(F)(F)C(F)(F)C(F)(F)C(F)(F)C(F)(F)F [PFHpA, perfluoroheptanoic acid]	440 ± 80

same assay, conditions: read-out: Human Kd ± SEM; human albumin

SMILES	Kd [µM]
O=S(=O)(O)CCC(F)(F)C(F)(F)C(F)(F)C(F)(F)C(F)(F)C(F)(F)F [6:2 FTSA, 2H,2H,3H,3H-Perfluorooctane-1-sulfonate]	370 ± 140

same assay, conditions: result in words

SMILES	bound by HSA
OCCC(F)(F)C(F)(F)C(F)(F)C(F)(F)F [4:2 FTOH, 1H,1H,2H,2H-Perfluorohexane-1-ol]	not bound by HSA
OCCC(F)(F)C(F)(F)C(F)(F)C(F)(F)C(F)(F)C(F)(F)F [6:2 FTOH, 1H,1H,2H,2H-Perfluorooctanol]	not bound by HSA

same assay, conditions: stock solvent DMSO (50% in HBS)

SMILES	Δ Tm [°C]
O=C(O)C(F)(F)C(F)(F)C(F)(F)C(F)(F)C(F)(F)C(F)(F)C(F)(F)F [PFOA, perfluorooctanoic acid]	13.2

same assay, conditions: stock solvent DMSO (50% in HBS); mean ± SEM

SMILES	EC50 [µM]	Kd [µM]
O=C(O)C(F)(F)C(F)(F)C(F)(F)C(F)(F)C(F)(F)C(F)(F)C(F)(F)F [PFOA, perfluorooctanoic acid]	850 ± 10	840 ± 80

same assay, conditions: stock solvent HEPES-buffered saline (HBS); mean ± SEM

SMILES	Kd [µM]
O=C(O)C(F)(F)C(F)(F)C(F)(F)C(F)(F)C(F)(F)C(F)(F)C(F)(F)F [PFOA, perfluorooctanoic acid]	830 ± 110

same assay, conditions: stock solvent Methanol (30% in HBS)

SMILES	Δ Tm [°C]
O=C(O)C(F)(F)C(F)(F)C(F)(F)C(F)(F)C(F)(F)C(F)(F)C(F)(F)F [PFOA, perfluorooctanoic acid]	13.5

same assay, conditions: stock solvent Methanol (30% in HBS); mean ± SEM

SMILES	EC50 [µM]
O=C(O)C(F)(F)C(F)(F)C(F)(F)C(F)(F)C(F)(F)C(F)(F)C(F)(F)F [PFOA, perfluorooctanoic acid]	780 ± 70

target: Porcine serum albumin (PSA) (Sus scrofa, UniProt P08835); assay: DSF thermal shift assay of porcine serum albumin binding; details: not given
Sequence (P08835 25-607): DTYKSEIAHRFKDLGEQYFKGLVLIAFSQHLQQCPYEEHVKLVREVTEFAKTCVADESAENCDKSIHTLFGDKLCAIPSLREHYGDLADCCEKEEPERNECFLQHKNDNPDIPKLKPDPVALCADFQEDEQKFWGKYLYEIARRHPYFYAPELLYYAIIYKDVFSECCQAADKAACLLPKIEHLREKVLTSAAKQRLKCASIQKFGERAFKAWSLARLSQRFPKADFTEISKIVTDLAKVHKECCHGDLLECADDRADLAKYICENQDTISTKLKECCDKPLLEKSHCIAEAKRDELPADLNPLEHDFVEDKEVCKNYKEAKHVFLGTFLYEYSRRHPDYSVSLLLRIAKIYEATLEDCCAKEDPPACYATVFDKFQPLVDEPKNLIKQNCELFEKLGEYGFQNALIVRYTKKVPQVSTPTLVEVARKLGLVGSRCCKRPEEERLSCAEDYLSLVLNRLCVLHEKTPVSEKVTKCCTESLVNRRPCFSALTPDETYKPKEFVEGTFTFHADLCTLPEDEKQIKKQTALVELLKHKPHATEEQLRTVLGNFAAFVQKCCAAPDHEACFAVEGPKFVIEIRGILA
Method: as §1, §2, §3
(§5) Binding affinities for certain PFAS compounds were also determined using PSA, BSA, and RSA.

SMILES	Kd [µM]
O=S(=O)(O)C(F)(F)C(F)(F)C(F)(F)C(F)(F)F [PFBS, Perfluorobutanesulfonic acid]	1550 ± 40
O=C(O)C(F)(F)C(F)(F)C(F)(F)C(F)(F)C(F)(F)F [PFHxA, Perfluorohexanoic acid]	1420 ± 30
O=C(O)C(F)(F)C(F)(F)C(F)(F)C(F)(F)C(F)(F)C(F)(F)C(F)(F)F [PFOA, perfluorooctanoic acid]	320 ± 40
O=C(O)C(F)(F)C(F)(F)C(F)(F)F [PFBA, Perfluorobutanoic acid]	1500 ± 110

target: bovine serum albumin (BSA) (Bos taurus, UniProt P02769); assay: DSF thermal shift assay of bovine serum albumin binding; details: not given
Sequence (P02769 25-607): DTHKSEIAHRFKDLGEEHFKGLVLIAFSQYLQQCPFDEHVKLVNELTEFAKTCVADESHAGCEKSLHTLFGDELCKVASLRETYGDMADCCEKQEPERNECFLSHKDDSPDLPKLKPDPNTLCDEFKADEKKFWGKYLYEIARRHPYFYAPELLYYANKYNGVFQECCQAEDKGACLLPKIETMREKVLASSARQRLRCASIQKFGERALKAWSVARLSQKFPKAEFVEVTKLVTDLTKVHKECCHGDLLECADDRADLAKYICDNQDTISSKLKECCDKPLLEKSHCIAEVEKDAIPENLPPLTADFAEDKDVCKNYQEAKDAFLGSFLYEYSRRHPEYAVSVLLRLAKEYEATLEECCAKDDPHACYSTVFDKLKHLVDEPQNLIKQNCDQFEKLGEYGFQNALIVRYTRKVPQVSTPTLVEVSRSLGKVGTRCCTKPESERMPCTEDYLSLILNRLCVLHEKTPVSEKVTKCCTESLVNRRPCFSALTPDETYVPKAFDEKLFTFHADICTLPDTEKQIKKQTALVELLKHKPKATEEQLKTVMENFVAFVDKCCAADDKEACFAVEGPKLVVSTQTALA
Method: as §1, §2, §3, §5

SMILES	Kd [µM]
O=S(=O)(O)C(F)(F)C(F)(F)C(F)(F)C(F)(F)F [PFBS, Perfluorobutanesulfonic acid]	1130 ± 80
O=C(O)C(F)(F)C(F)(F)C(F)(F)C(F)(F)C(F)(F)F [PFHxA, Perfluorohexanoic acid]	950 ± 110
O=C(O)C(F)(F)C(F)(F)C(F)(F)C(F)(F)C(F)(F)C(F)(F)C(F)(F)F [PFOA, perfluorooctanoic acid]	750 ± 50
O=C(O)C(F)(F)C(F)(F)C(F)(F)F [PFBA, Perfluorobutanoic acid]	980 ± 100

same assay, conditions: read-out: Bovine Kd ± SEM; bovine albumin

SMILES	Kd [µM]
O=S(=O)(O)CCC(F)(F)C(F)(F)C(F)(F)C(F)(F)C(F)(F)C(F)(F)F [6:2 FTSA, 2H,2H,3H,3H-Perfluorooctane-1-sulfonate]	930 ± 50

target: rat serum albumin (RSA) (Rattus norvegicus, UniProt P02770); assay: DSF thermal shift assay of rat serum albumin binding; details: not given
Sequence (P02770 25-608): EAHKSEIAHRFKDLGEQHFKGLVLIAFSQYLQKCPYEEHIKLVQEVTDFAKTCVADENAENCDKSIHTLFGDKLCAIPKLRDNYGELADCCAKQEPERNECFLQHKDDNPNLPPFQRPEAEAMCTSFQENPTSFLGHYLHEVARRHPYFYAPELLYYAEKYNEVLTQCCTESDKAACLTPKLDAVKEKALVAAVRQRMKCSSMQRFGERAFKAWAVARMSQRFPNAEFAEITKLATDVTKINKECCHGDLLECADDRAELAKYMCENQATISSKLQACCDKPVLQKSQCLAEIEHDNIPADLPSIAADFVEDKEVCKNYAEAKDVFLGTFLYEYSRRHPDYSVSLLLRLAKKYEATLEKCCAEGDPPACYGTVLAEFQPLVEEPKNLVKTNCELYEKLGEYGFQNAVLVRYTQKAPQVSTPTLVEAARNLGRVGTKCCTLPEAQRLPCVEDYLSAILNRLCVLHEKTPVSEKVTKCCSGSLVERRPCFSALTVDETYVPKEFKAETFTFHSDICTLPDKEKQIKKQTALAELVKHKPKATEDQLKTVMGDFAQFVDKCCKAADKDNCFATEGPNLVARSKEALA
Method: as §1, §2, §3, §5

SMILES	Kd [µM]
O=S(=O)(O)C(F)(F)C(F)(F)C(F)(F)C(F)(F)F [PFBS, Perfluorobutanesulfonic acid]	930 ± 80
O=C(O)C(F)(F)C(F)(F)C(F)(F)C(F)(F)C(F)(F)F [PFHxA, Perfluorohexanoic acid]	960 ± 70
O=C(O)C(F)(F)C(F)(F)C(F)(F)F [PFBA, Perfluorobutanoic acid]	1390 ± 110

test system: not given; assay: not given; details: not given
From the text: as §4

SMILES	aqueous solubility
O=C(O)CCC(F)(F)C(F)(F)C(F)(F)C(F)(F)C(F)(F)C(F)(F)C(F)(F)C(F)(F)F [8:3 FTCA, 2,H,2H,3H,3H-Perfluoroundecanoate]	limited aqueous solubility

test system: not given; assay: not given; details: decarboxylation (Liberatore et al.); cited from earlier work

SMILES	stability in DMSO
O=C(O)C(F)(OC(F)(F)C(F)(F)C(F)(F)F)C(F)(F)F (stereo not drawn) [HFPO-DA, hexafluoropropylene oxide dimer acid]	rapidly converted to E1
